Measured values reported in PMC2859942 (PLoS ONE, 2010).

What was measured:
[1] = system: recombinant viruses (patient IN amplicons in pHXB2-ΔIN backbone) in MT4-LTR-eGFP cells; assay: Drug susceptibility testing of replication-competent recombinant viruses (phenotypic sensitivity, eGFP readout); type: cell-based, HIV-1; details: for EVG FC (elvitegravir sensitivity fold-change in IC50): vs IIIB HIV-1 wild-type reference
[2] = system: IN WT, IN Y143C and IN Y143R; type: biochemical, HIV-1; details: strand transfer observed in the 3′end processing assay, uncleaved substrate, three enzymes
[3] = samples with the Y143C/H/R mutations

Cc1nnc(C(=O)NC(C)(C)c2nc(C(=O)NCc3ccc(F)cc3)c(O)c(=O)n2C)o1 [RAL, raltegravir]
median RAL FC [1, 3]: 24.83
range of RAL FC [1, 3]: 5.87–51.95
concentration of drug for complete inhibition of ST [2]: 0.4 µM

COc1cc2c(cc1Cc1cccc(Cl)c1F)c(=O)c(C(=O)O)cn2[C@H](CO)C(C)C [EVG, elvitegravir]
EVG FC (elvitegravir sensitivity fold-change in IC50) ([1]; patient 1, D0, integrase mutations V72I I203M): 0.89
EVG FC (elvitegravir sensitivity fold-change in IC50) ([1]; patient 1, M3 on RAL, V72I L74L/M T97A/T Y143C I203M): 1.56
EVG FC (elvitegravir sensitivity fold-change in IC50) ([1]; patient 1, M9 (RAL removed after month 6), V72I I203M): 0.83
EVG FC (elvitegravir sensitivity fold-change in IC50) ([1]; patient 1, M12 (RAL removed after month 6), V72I I203M): 1.43
EVG FC (elvitegravir sensitivity fold-change in IC50) ([1]; patient 2, D0, V151I/V): 0.94
EVG FC (elvitegravir sensitivity fold-change in IC50) ([1]; patient 2, M3 on RAL, N155N/H): 6.05
EVG FC (elvitegravir sensitivity fold-change in IC50) ([1]; patient 2, M6 on RAL, T97A/T G163G/R Y143Y/C/H/R): 6.23
EVG FC (elvitegravir sensitivity fold-change in IC50) ([1]; patient 2, M9 on RAL, T97A/T G163G/R Y143Y/C/H/R): 2.68
EVG FC (elvitegravir sensitivity fold-change in IC50) ([1]; patient 3, D0, V72I): 0.60
EVG FC (elvitegravir sensitivity fold-change in IC50) ([1]; patient 3, M6 on RAL, V72I T97A/T Y143C/H/R/Y): 3
EVG FC (elvitegravir sensitivity fold-change in IC50) ([1]; patient 3, M12 on RAL, V72I T97A/T Y143C/H/R/Y): 9.57
median EVG FC [1, 3]: 3
range of EVG FC [1, 3]: 1.56–9.57
